Key:
[1] = Stability of Compound 1 in vehicle stored at 55° C., amount determined by HPLC; assay type: physicochemical; settings: for day 10, percentage based on the theoretical amount (250 μg/g): stored at 55° C.
Method: Compound 1 was dissolved in a vehicle shown in table 1 below to give 250 μg/g solution. Then, the solution was put in a hard grass container and heated at 55° C. The precise amount of Compound 1 in the solution was determined by means of HPLC (day 0). The container was kept at 55° C. for 10 days and after that the precise amount of the compound 1 was determined by means of HPLC (day 10).
The determination of the amount of the compound was carried out as follows. About 0.2 g of the sample was mixed with exactly 2 mL of internal standard solution and then with a dissolving agent shown in Table 1 to give 5 ml of sample solution. About 5 mg of the reference standard compound 1 was weighted precisely and added with acetonitrile to give exactly 50 mL solution. Exactly 1 ml of the solution was obtained and added with exactly 4 mL of the internal standard solution, and then added with the dissolving agent to give 10 mL of reference solution.
The fluorescent labeling agent was added to the respective solution, stirred and stood at room temperature for more than 30 minutes. After that, 2% acetic acid in acetonitrile was added to the solution, stirred and reacted at room temperature for more 30 minutes to give the sample and standard solutions. Then, the respective solution in an amount that theoretically gives 3.6 ng of compound 1 was loaded on the column and analyzed under the condition as follows:
(§1) Column: 5 mm×25 cm stainless steel column packed with octadecylsilane treated silica gel for HPLC (5 μm)
Mobile phase: mixture of acetonitrile (HPLC grade) and perchlorate buffer
(§2) Detector: spectrophotofluorometer
According to the same manner as described in Example 1, stability of the compound 1 in various vehicles was measured.

[2] = Stability of Compound 1 in soft gelatin capsules (sugar alcohol plasticizer) on storage, amount determined by HPLC; assay type: physicochemical
Method: Sugar alcohol solution derived from corn starch 60 parts by weight was added in an appropriate amount of water, stirred and heated. Then, gelatin 100 parts by weight was added thereto to give gelatin solution. Compound 1 was dissolved in medium chain fatty acid triglyceride (USP/NF grade) to give a liquid mixture containing 120 μg/g of compound 1. The gelatin solution and the liquid mixture were loaded on a soft capsule forming and filling machine to give capsule containing the liquid mixture, and dried to give soft gelatin capsule with an appropriate hardness.
The soft gelatin capsules obtained in the formulation example were kept at 40° C. for 6 months or at 55° C. for one month. After that, 20 capsules were swelled with purified water and ethyl acetate (HPLC grade) 10 ml was added thereto. The capsule was then cut opened and the liquid contained therein was obtained. 1 ml of the internal standard solution per 100 μg of theoretical amount of compound 1 was added to the liquid, and ethyl acetate (HPLC grade) was added so that the theoretical concentration of compound 1 was 10 μg/mL to give a sample solution.
On the other hand, about 0.025 g of standard Compound 1 was precisely weighted and added with ethyl acetate (HPLC grade) to give exactly 100 mL solution. 2 mL of the solution was measured, exactly 5 mL of the internal standard solution was added thereto and ethyl acetate (HPLC grade) was added so that the total amount was 50 mL to give the standard compound 1 solution.
The fluorescent labeling agent was added to the sample and standard solutions, stirred and reacted at room temperature.
The respective solution in an amount that theoretically gives 3.6 ng of compound 1 was loaded on the column and analyzed under the condition as follows: HPLC analysis condition:
as §1
Mobile phase: mixture of acetonitrile HPLC grade: methanol HPLC grade: ammonium acetate (0.05 mol/L)
as §2
The amount of the compound 1 in the sample solution was determined by using a one point calibration curve.

In the case of `CCCCC(F)(F)C(=O)CCC1CCC(=O)C1CCCCCCC(=O)O` (stereo not shown) [Compound 1, 11-deoxy-13,14-dihydro-15-keto-16,16-difluoro PGE1], the “stability on admixing with a fatty acid ester” value ([1]; admixed with a fatty acid ester such as glyceride, 55° C., 10 days) is reported as “significantly improved”, the “stability in polyol, sugar, sugar alcohol, polyethylene glycol, polysorbate 80 and fatty acid” value ([1]; in polyol such as glycerine, sugar, sugar alcohol, polyethylene glycol, polysorbate 80, and fatty acid, 55° C., 10 days) is reported as “poor” and the “day 0, percentage based on the theoretical amount (250 μg/g)” value (“day 0, percentage based” for short) ([1]; no vehicle (compound 1 only), 55° C.) is reported as 95.4%. For the same compound, the “day 10, percentage based on the theoretical amount (250 μg/g)” value (from here on “day 10, percentage based”) ([1]; no vehicle (compound 1 only)) was 82.8%, the “day 0, percentage based” value ([1]; vehicle Macrogol 400 (polyethyleneglycol), 55° C.) was 92.2% and the “day 10, percentage based” value ([1]; vehicle Macrogol 400 (polyethyleneglycol)) was 80.7%. For the same compound, the “day 0, percentage based” value ([1]; vehicle concentrated glycerin, 55° C.) was 20.9%, the “day 10, percentage based” value ([1]; vehicle concentrated glycerin) was 20.0% and the “day 0, percentage based” value ([1]; vehicle corn oil, 250 μg/g solution, 55° C.) was 93.1%. For the same compound, the “day 10, percentage based” value ([1]; vehicle corn oil, 250 μg/g solution) was 94.8%, the “day 0, percentage based” value ([1]; vehicle glycerine fatty acid ester (Inwitor 742), 250 μg/g solution, 55° C.) was 93.3% and the “day 10, percentage based” value ([1]; vehicle glycerine fatty acid ester (Inwitor 742), 250 μg/g solution) was 96.4%. For the same compound, the “day 0, percentage based” value ([1]; vehicle hydrogenated maltose starch syrup, 55° C.) was 5.1%, the “day 10, percentage based” value ([1]; vehicle hydrogenated maltose starch syrup) was 3.5% and the “day 0, percentage based” value ([1]; vehicle isopropyl palmitate, 250 μg/g solution, 55° C.) was 93.9%. The “day 10, percentage based” value ([1]; vehicle isopropyl palmitate, 250 μg/g solution) was 96.7%, the “day 0, percentage based” value ([1]; vehicle medium chain fatty acid triglyceride (Miglyol 812N), 250 μg/g solution, 55° C.) was 94.1% and the “day 10, percentage based” value ([1]; vehicle medium chain fatty acid triglyceride (Miglyol 812N), 250 μg/g solution) was 97.0%. The “day 0, percentage based” value ([1]; vehicle oleic acid, 55° C.) was 61.9%, the “day 10, percentage based” value ([1]; vehicle oleic acid) was 51.6% and the “day 0, percentage based” value ([1]; vehicle polysorbate 80, 55° C.) was 92.1%. The “day 10, percentage based” value ([1]; vehicle polysorbate 80) was 64.5%, the “day 0, percentage based” value ([1]; vehicle propyleneglycol fatty acid ester (Rikemal PO-100V), 250 μg/g solution, 55° C.) was 93.9% and the “day 10, percentage based” value ([1]; vehicle propyleneglycol fatty acid ester (Rikemal PO-100V), 250 μg/g solution) was 92.1%. For the same compound, the “day 0, percentage based” value ([1]; vehicle soy oil, 250 μg/g solution, 55° C.) was 98.2%, the “day 10, percentage based” value ([1]; vehicle soy oil, 250 μg/g solution) was 94.6% and the “day 0, percentage based” value ([1]; vehicle sugar alcohol solution derived from corn starch, 55° C.) was 3.8%. For the same compound, the “day 10, percentage based” value ([1]; vehicle sugar alcohol solution derived from corn starch) was 5.6%, the “amounts of compound 1 (% vs day 0), Initial” value ([2]; soft gelatin capsule, gelatin 100 / sugar alcohol solution 60, 120 μg/g in medium chain fatty acid triglyceride, 40° C.) was 100 % vs day 0 and the “amounts of compound 1 (% vs day 0), Initial” value ([2]; soft gelatin capsule, gelatin 100 / sugar alcohol solution 60, 120 μg/g in medium chain fatty acid triglyceride, 55° C.) was 100 % vs day 0. The “amounts of compound 1 (% vs day 0), 1 mo” value ([2]; soft gelatin capsule, gelatin 100 / sugar alcohol solution 60, 120 μg/g in medium chain fatty acid triglyceride, stored at 40° C., 1 mo) was 99.8 % vs day 0, the “amounts of compound 1 (% vs day 0), 3 mo” value ([2]; soft gelatin capsule, gelatin 100 / sugar alcohol solution 60, 120 μg/g in medium chain fatty acid triglyceride, stored at 40° C., 3 mo) was 98.0 % vs day 0 and the “amounts of compound 1 (% vs day 0), 6 mo” value ([2]; soft gelatin capsule, gelatin 100 / sugar alcohol solution 60, 120 μg/g in medium chain fatty acid triglyceride, stored at 40° C., 6 mo) was 98.8 % vs day 0. The “amounts of compound 1 (% vs day 0), 1 w” value ([2]; soft gelatin capsule, gelatin 100 / sugar alcohol solution 60, 120 μg/g in medium chain fatty acid triglyceride, stored at 55° C., 1 w) was 100.2 % vs day 0, the “amounts of compound 1 (% vs day 0), 2 w” value ([2]; soft gelatin capsule, gelatin 100 / sugar alcohol solution 60, 120 μg/g in medium chain fatty acid triglyceride, stored at 55° C., 2 w) was 100.1 % vs day 0 and the “amounts of compound 1 (% vs day 0), 4 w” value ([2]; soft gelatin capsule, gelatin 100 / sugar alcohol solution 60, 120 μg/g in medium chain fatty acid triglyceride, stored at 55° C., 4 w) was 99.5 % vs day 0. The “effect of sugar alcohol solution/polyol on stability when used as plasticizer” value ([2]; sugar alcohol solution/polyol used as plasticizer of soft gelatin capsule shell) was “will not affect the stability”.

From patent US20150126609A1, “PHARMACEUTICAL COMPOSITION COMPRISING 11-DEOXY -PROSTAGLANDIN COMPOUND AND METHOD FOR STABILIZING THE COMPOUND” (R-TECH UENO, LTD., priority 2007, published 2015)
